Reference: ChEMBL document CHEMBL4368904 (J Med Chem, 2019)
pEC50, pIC50, pKi: −log10 of the molar value.

Tests used:
[1] = Elimination half life in CD1 mouse at 3 to 30 mg/kg, ip; type: ADME, organism-based; conditions: in vivo
[2] = Protein binding in mouse plasma; type: ADME, cell-free
Mus musculus [3] = assay: Induction of hypothermia in C57BL/6J mouse assessed as body temperature at 3 mg/kg, ip measured at 60 mins post dose (reference value: 36.3 +/- 0.8 degC); type: functional
[4] = Stability in simulated gastric fluid after 120 mins; type: ADME; conditions: read-out: Stability
[5] = Toxicity in Sprague-Dawley rat assessed as increase in blood pressure at 3 mg/kg, ip; type: organism-based; conditions: in vivo
[6] = Stability in simulated intestinal fluid; type: ADME; conditions: simulated gi fluid
[7] = Protein binding in rat plasma; type: ADME, cell-free
[8] = Elimination half life in CD1 mouse at 1 to 10 mg/kg, po; type: ADME, organism-based; conditions: in vivo
Cytochrome P450 3A4 = Cytochrome P450 3A4 (Homo sapiens, UniProt P08684)
Chain of Cytochrome P450 3A4 (P08684 whole entry): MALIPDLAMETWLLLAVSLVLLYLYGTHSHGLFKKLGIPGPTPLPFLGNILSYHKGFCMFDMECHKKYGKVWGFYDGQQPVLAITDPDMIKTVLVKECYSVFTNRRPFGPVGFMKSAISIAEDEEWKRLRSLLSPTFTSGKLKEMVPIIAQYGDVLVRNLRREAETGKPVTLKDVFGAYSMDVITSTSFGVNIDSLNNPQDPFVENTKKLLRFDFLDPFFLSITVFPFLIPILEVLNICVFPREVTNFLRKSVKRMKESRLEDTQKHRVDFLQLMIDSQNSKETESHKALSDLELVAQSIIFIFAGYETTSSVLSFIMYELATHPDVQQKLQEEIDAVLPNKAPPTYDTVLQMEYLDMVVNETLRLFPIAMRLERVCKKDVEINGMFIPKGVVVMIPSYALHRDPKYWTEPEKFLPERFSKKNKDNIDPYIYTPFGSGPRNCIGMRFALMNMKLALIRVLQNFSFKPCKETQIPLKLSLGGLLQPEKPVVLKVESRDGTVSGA
Description: Inhibition of human CYP3A4 using midazolam as substrate

Cytochrome P450 2C9 = Cytochrome P450 2C9 (Homo sapiens, UniProt P11712)
Chain of Cytochrome P450 2C9 (P11712 whole entry): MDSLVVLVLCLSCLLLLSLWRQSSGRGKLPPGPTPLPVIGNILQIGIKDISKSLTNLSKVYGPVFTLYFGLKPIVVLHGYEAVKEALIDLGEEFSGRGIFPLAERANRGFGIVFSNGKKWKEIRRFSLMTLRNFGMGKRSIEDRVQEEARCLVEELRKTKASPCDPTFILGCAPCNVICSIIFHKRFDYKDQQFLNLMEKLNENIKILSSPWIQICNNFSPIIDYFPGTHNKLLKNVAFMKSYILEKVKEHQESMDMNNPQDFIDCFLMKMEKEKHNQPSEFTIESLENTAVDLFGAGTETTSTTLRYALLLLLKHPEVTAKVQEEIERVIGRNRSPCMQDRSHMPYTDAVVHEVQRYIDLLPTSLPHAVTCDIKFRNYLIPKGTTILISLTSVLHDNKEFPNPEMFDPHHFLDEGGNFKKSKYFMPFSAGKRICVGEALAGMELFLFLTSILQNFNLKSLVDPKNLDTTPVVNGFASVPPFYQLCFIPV
Description: Inhibition of human CYP2C9 using tolbutamide as substrate

Adenosine receptor A1 [9] = target: T1, Adenosine receptor A1 (Mus musculus, UniProt Q60612); assay: Displacement of [3H]N6-R-phenylisopropyladenosine from mouse A1A adenosine receptor expressed in CHO cell membranes after 60 mins by scintillation proximity assay
T1 sequence (Q60612 whole entry): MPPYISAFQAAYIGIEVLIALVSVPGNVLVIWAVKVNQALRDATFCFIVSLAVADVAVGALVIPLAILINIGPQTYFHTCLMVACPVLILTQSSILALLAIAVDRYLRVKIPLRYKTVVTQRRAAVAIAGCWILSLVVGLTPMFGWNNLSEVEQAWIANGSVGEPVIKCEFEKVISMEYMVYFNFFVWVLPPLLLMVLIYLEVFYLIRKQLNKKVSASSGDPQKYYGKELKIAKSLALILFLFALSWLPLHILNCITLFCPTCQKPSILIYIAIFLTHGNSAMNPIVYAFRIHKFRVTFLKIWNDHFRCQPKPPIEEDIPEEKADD

[10] = Toxicity in cynomolgus monkey effect on clinical parameters at 0.5 mg/kg, iv or 1 mg/kg, po measured after 1 day post dose; type: organism-based, Macaca fascicularis; conditions: in vivo, 24 h
[11] = Oral bioavailability in CD1 mouse at 3 mg/kg; type: ADME, organism-based; conditions: in vivo
[12] = Toxicity in rhesus monkey at 1 to 3 mg/kg dosed in food treat measured up to 4 hrs post dose; type: organism-based, Macaca mulatta; conditions: in vivo, po
Adenosine receptor A1 [13] = target: Adenosine receptor A1 (Rattus norvegicus, UniProt P25099); assay: Agonist activity at rat A1A adenosine receptor expressed in CHO-K1 cell membranes incubated for 60 mins by [35S]GTPgammaS binding assay; type: functional
Chain of Adenosine receptor A1 (Rattus norvegicus, UniProt P25099) (P25099 whole entry): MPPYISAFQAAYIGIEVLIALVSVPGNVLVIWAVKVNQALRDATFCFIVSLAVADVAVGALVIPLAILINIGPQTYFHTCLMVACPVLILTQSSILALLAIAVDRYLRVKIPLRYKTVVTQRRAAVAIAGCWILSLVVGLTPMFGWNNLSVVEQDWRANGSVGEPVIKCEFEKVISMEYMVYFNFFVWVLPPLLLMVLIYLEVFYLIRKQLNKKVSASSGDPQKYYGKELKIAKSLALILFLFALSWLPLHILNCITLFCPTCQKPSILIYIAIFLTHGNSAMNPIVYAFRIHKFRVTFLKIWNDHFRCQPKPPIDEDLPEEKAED

[14] = Oral bioavailability in cynomolgus monkey at 1 mg/kg; type: ADME, organism-based, Macaca fascicularis; conditions: in vivo
[15] = Toxicity in Sprague-Dawley rat assessed as reduction in heart rate at 3 mg/kg, ip; type: organism-based; conditions: in vivo
Mus musculus [16] = assay: Induction of hypothermia in C57BL/6J mouse assessed as activity counts at 3 mg/kg, ip measured at 60 mins post dose (reference value: 15.5 +/- 5.5); type: functional
[17] = Stability in human liver microsomes; type: ADME, Microsome
Cytochrome P450 2D6 = Cytochrome P450 2D6 (Homo sapiens, UniProt P10635)
Chain of Cytochrome P450 2D6 (P10635 whole entry): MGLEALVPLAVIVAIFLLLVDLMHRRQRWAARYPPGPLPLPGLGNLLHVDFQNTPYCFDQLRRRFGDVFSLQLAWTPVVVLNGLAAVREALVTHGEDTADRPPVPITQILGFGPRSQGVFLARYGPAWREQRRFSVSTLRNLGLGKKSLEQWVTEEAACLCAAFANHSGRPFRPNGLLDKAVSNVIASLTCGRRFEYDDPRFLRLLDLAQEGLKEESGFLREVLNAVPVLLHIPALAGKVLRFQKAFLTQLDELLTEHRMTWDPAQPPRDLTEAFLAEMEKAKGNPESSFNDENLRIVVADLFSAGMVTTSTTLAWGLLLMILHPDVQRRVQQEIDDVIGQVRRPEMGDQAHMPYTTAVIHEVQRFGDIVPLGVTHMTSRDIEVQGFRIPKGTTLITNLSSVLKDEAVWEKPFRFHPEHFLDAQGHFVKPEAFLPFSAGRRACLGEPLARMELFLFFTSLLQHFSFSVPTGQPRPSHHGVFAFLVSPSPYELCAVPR
Description: Inhibition of human CYP2D6 using dextromethorphan as substrate

[18] = Oral bioavailability in CD1 mouse at 1 mg/kg; type: ADME, organism-based; conditions: in vivo
Adenosine receptor A2a = Adenosine receptor A2a (Homo sapiens, UniProt P29274); assay: Displacement of [3H]2-[p-(2-carboxyethyl)phenylethylamino]-5-N-ethylcarboxamidoadenosine from human A2A adenosine receptor expressed in HEK293 cell membranes at 10 uM after 60 mins by scintillation proximity assay relative to adenosine 5-N-ethyluronamide
Chain of Adenosine receptor A2a (P29274 whole entry): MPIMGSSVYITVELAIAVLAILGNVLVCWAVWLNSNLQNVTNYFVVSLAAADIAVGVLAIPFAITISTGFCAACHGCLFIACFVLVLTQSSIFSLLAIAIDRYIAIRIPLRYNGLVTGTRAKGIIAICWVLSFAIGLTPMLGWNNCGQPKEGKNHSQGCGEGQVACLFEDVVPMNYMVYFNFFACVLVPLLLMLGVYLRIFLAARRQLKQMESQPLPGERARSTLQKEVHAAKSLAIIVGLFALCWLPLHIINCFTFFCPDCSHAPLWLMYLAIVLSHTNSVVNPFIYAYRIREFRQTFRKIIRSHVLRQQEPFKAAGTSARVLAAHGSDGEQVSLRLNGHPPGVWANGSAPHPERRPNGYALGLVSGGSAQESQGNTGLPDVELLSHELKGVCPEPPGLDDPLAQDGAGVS

[19] = target: T2, 5-hydroxytryptamine receptor 2C (Homo sapiens, UniProt P28335); assay: Inhibition of 5HT2C (unknown origin)
T2 sequence (P28335 whole entry): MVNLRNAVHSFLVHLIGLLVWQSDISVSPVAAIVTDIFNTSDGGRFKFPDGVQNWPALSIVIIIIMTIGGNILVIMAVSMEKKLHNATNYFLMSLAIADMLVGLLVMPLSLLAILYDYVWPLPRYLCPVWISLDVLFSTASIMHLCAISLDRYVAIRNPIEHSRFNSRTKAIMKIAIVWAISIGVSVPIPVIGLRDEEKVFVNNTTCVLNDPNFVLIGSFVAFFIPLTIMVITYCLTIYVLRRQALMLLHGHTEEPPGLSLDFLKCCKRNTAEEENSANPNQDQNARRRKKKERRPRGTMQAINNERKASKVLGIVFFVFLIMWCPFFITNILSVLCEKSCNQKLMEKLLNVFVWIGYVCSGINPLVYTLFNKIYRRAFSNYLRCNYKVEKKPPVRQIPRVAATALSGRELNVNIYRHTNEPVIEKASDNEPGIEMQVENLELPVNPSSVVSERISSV

Adenosine receptor A3 [20] = target: T3, Adenosine receptor A3 (Mus musculus, UniProt Q61618); assay: Displacement of [125I]N6-(4-amino-3-iodobenzyl)adenosine-5-N-methyluronamide from mouse A3A adenosine receptor expressed in CHO cell membranes after 60 mins by scintillation proximity assay
T3 sequence (Q61618 whole entry): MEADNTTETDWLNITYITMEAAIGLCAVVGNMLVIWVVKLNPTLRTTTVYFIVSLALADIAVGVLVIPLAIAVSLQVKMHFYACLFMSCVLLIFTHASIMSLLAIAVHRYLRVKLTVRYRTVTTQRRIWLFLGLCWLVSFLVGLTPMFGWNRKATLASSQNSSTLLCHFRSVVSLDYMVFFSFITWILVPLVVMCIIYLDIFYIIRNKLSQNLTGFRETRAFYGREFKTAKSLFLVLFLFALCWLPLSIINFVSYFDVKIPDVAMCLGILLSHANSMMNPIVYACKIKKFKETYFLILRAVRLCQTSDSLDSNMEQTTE

[21] = target: 5-hydroxytryptamine receptor 2B (Homo sapiens, UniProt P41595); assay: Inhibition of 5HT2B (unknown origin)
Chain of 5-hydroxytryptamine receptor 2B (P41595 whole entry): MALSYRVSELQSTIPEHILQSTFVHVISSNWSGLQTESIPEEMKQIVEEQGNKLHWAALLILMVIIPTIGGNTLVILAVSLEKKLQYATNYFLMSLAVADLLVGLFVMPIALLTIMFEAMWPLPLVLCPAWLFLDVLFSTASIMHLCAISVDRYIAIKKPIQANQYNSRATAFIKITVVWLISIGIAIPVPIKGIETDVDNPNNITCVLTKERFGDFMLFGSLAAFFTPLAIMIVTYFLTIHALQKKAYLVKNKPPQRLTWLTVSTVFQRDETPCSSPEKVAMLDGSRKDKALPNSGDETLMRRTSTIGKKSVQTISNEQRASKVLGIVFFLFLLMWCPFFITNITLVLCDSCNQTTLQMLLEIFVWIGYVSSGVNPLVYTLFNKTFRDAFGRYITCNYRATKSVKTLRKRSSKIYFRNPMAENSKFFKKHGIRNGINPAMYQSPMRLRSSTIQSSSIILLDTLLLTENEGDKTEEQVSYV

Adenosine receptor A1 [22] = target: T4, Adenosine receptor A1 (Homo sapiens, UniProt P30542); assay: Displacement of [3H]N6-R-phenylisopropyladenosine from human A1A adenosine receptor expressed in CHO cell membranes after 60 mins by scintillation proximity assay
T4 sequence (P30542 whole entry): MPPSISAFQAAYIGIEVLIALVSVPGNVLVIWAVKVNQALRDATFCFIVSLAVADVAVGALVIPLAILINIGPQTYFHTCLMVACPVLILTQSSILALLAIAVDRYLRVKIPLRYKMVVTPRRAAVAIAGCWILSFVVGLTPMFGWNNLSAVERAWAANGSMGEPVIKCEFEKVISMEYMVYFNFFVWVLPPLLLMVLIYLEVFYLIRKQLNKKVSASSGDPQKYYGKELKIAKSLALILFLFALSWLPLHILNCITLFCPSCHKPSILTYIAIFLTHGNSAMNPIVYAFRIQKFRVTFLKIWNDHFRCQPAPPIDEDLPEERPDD

[23] = target: Alpha-2A adrenergic receptor (Homo sapiens, UniProt P08913); assay: Inhibition of alpha2a receptor (unknown origin)
Chain of Alpha-2A adrenergic receptor (P08913 whole entry): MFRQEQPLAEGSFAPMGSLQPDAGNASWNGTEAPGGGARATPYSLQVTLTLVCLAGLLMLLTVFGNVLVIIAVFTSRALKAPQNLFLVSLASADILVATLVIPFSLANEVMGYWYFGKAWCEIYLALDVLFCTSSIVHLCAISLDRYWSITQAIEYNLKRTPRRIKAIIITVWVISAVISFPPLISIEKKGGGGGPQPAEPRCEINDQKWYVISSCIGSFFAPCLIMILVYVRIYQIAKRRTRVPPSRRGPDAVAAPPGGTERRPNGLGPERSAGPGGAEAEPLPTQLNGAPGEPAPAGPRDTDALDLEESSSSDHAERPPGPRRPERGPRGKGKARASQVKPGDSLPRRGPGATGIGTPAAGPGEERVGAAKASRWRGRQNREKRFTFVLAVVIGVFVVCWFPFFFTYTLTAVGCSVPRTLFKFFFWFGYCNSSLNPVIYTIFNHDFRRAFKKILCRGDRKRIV

Translocator protein = Translocator protein (Homo sapiens, UniProt P30536); assay: Inhibition of TSPO (unknown origin)
Chain of Translocator protein (P30536 whole entry): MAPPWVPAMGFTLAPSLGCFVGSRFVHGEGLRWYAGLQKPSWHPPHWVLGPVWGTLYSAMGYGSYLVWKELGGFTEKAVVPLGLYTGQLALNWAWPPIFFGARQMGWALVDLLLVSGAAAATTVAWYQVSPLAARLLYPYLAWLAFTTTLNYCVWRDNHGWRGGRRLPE

Adenosine receptor A3 [24] = target: T5, Adenosine receptor A3 (Homo sapiens, UniProt P0DMS8); assay: Displacement of [125I]N6-(4-amino-3-iodobenzyl)adenosine-5-N-methyluronamide from human A3A adenosine receptor expressed in CHO cell membranes after 60 mins by scintillation proximity assay
T5 sequence (P0DMS8 whole entry): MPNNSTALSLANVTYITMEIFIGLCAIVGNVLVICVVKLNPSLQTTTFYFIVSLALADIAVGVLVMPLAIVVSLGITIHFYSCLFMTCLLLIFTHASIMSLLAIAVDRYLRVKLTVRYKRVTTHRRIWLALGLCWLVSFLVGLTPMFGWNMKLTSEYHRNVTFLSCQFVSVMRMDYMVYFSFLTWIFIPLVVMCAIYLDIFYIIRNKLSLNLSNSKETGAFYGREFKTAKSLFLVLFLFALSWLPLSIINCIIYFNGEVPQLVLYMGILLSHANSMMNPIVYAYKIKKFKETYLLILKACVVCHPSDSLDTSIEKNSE

`O[C@@H]1[C@H](O)[C@@H]2C[C@@H]2[C@H]1n1cnc2c(NC(C3CC3)C3CC3)nc(Cl)nc21` showed a beta t1/2 [1] of 2.5 to 4 h, a PPB [2] of 94% and a T (Mus musculus [3]) of 33.4 °C. For the same compound, the remaining at 2 h [4] was 51%, the Activity [5] was “Toxic” and the Stability [6] was “Stable”. The PPB [7] was 90%, the beta t1/2 [8] was 5 to 11 h and the pIC50 (Cytochrome P450 3A4) was < 4.60. For the same compound, the pIC50 (Cytochrome P450 2C9) was < 4.60, the pKi (Adenosine receptor A1 [9]) was 8.28 and the Activity [10] was “Non-Toxic”. The bioavailability [11] was 124%, the Activity [12] was “Non-Toxic” and the pEC50 (Adenosine receptor A1 [13]) was 8.18. For the same compound, the F [14] was 24%, the Activity [15] was “Toxic” and the Activity (Mus musculus [16]) was 5.5. For the same compound, the Stability [17] was “Stable”, the pIC50 (Cytochrome P450 2D6) was < 4.60 and the bioavailability [18] was 98%.
With `O[C@@H]1[C@H](O)[C@@H]2C[C@@H]2[C@H]1n1cnc2c(NC(C3CCC3)C3CCC3)nc(Cl)nc21` the inhibition (Adenosine receptor A2a) was 46%, the pKi [19] was 5.08 and the pKi (Adenosine receptor A3 [20]) was 6.41. For the same compound, the pKi [21] was 5.54, the pKi (Adenosine receptor A1 [22]) was 6.02 and the pKi [23] was 5.16. For the same compound, the pKi (Translocator protein) was 5.62 and the pKi (Adenosine receptor A3 [24]) was 6.09.
